Assay results reported in US6906205B2, “Spiro and dispiro 1,2,4-trioxolane antimalarials” (Medicines for Malaria Venture MMV, priority 2002, dated 2005).
≈ marks a conversion by molar mass, not a printed value.

Tests used:
[1] = test system: P. falciparum K1 strain (Thailand resistant to chloroquine); experiment: semiautomated microdilution assay, [3H]-hypoxanthine incorporation, K1 strain; assay type: cell-based, Plasmodium falciparum; details: K1 strain, 72 h incubation
Procedure, shortened: (§1)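 Logit regression analysis was used to estimate IC50 values. Parasites were intraerythrocytic forms from asynchronous stock cultures, and compounds were tested by semiautomated microdilution.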

[2] = test system: P. falciparum NF54 strain (sensitive to standard antimalarials); experiment: semiautomated microdilution assay, [3H]-hypoxanthine incorporation, NF54 strain; assay type: cell-based, Plasmodium falciparum; details: NF54 strain, 72 h incubation
Procedure, shortened: as §1

[3] = test system: ANKA strain of P. berghei; experiment: single dose STI in vivo screen in infected mice; parameters: species or system Plasmodium berghei; details: for Activity (%) po / Activity (%) sc / Activity (%) SSVpo: percent reduction in parasitemia day 3 post-infection, mice; for Activity (%) po / Survival (days) po: single 10 mg/kg po in 3% ethanol and 7% Tween 80; for Activity (%) sc / Survival (days) sc: single 10 mg/kg sc in 3% ethanol and 7% Tween 80; for Survival (days) po / Survival (days) sc / Survival (days) SSVpo: untreated control 5.6 ± 0.3; for Activity (%) SSVpo: single po dose in standard suspending vehicle (SSV); for Survival (days) SSVpo: single po dose in SSV
Procedure, shortened: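 Groups of 3-5 Moro SPF or NMRI mice infected with the ANKA strain of P. berghei received a single dose of trioxolane on day one post-infection. The compound was given in 3% ethanol and 7% Tween 80 or in SSV (0.5% w/v CMC, 0.5% v/v benzyl alcohol, 0.4% v/v Tween 80, 0.9% w/v sodium chloride in water). Antimalarial activity was scored as percent reduction in parasitemia on day three and as survival time versus untreated controls. Survival to day 30 counted as cure.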

[4] = test system: Schistosoma mansoni 21-day-old schistosomules; experiment: effect on 21-day-old schistosomules in mice; assay type: in vivo; details: single 200 mg/kg per os, female mice
Procedure: All groups were killed 4 weeks after treatment and the liver and intestine were removed and separated. The liver and intestine were compressed and alive male and female worms could be seen and counted. The effect of the compounds was evaluated by mean total and female worm burden.

[5] = test system: Schistosoma mansoni adult schistosomes (49-day-old); experiment: effect on adult schistosomes (49-day-old) in mice; assay type: in vivo; details: for % reduction of adult worms growth at day 49 after per os application of 400 mg/kg, TWR (%) / adult worms at day 49, per os 400 mg/kg, DEAD WORM (%): single 400 mg/kg per os
Procedure: Mice were infected with 100 Schistosoma mansoni cercariae […]. Each group was treated per os with OZ compounds at single doses of 200, 400, and 600 mg/kg. […] All groups were killed 4 weeks after treatment and the liver and intestine were removed and separated. The liver and intestine were compressed and alive male and female worms could be seen and counted.

Compound | IC50 (ng/ml) K1 [1] | IC50 (ng/ml) NF54 [2] | Activity (%) po [3] | Activity (%) sc [3] | Survival (days) po [3] | Survival (days) sc [3] | % reduction of schistosomule growth at day 21 after per os application of 200 mg/kg, FWR (%) [4] [%] | % reduction of schistosomule growth at day 21 after per os application of 200 mg/kg, TWR (%) [4] [%] | % reduction of adult worms growth at day 49 after per os application of 400 mg/kg, TWR (%) [5] | adult worms at day 49, per os 400 mg/kg, DEAD WORM (%) [5] | % reduction of adult worms growth at day 49 after per os application of 600 mg/kg, TWR (%) ([5]; single 600 mg/kg per os) | adult worms at day 49, per os 600 mg/kg, DEAD WORM (%) ([5]; single 600 mg/kg per os) | Activity (%) SSVpo [3] [%] | Survival (days) SSVpo [3] [days] | Activity (%) po ([3]; 10 mg/kg) [%] | Activity (%) sc ([3]; 10 mg/kg) [%] | Survival (days) po ([3]; 10 mg/kg) [days] | Survival (days) sc ([3]; 10 mg/kg) [days]
C1C2CC3CC1CC(C2)C31OOC2(O1)C1CC3CC(C1)CC2C3 (centres unmarked) [OZ04] | >100/>100 ng/ml | >100/>100 ng/ml | 0/NA/0^1% | 0/NA/0^1% | 5.3/NA/5.3^1 days | 5.3/NA/5.3^1 days | 7 | 7 | 0/0% | 0/0% |  |  |  |  |  |  |  | 
C1COC2(CCC3(CC2)OOC2(O3)C3CC4CC(C3)CC2C4)O1 (centres unmarked) [OZ10] | 0.40 ng/mL (≈ 1.24 nM) | 0.67 ng/mL (≈ 2.08 nM) | 99.6% | 99.98% | 8.9 days | 10.5 days | 73 | 66 | 28% | 13% | 21 | 23% |  |  |  |  |  | 
O=C1CC2CC3(CC2C1)OOC1(O3)C2CC3CC(C2)CC1C3 (centres unmarked) [OZ12] |  |  | 75% | 99.8% | 7.0 days | 9.3 days | 79 | 78 | 14% | 0% |  |  |  |  |  |  |  | 
C1CCCCCC2(CCCCC1)OOC1(O2)C2CC3CC(C2)CC1C3 (centres unmarked) [OZ20] | 15 ng/mL (≈ 43 nM) | 20 ng/mL (≈ 57.4 nM) |  |  |  |  | 0 | 0 | 0/0% | 0/0% |  |  |  |  |  |  |  | 
c1ccc2c(c1)COC1(CCC3(CC1)OOC1(O3)C3CC4CC(C3)CC1C4)OC2 (centres unmarked) [OZ31] |  |  | 99.95% | 99.95% | 9.0 days | 17.7 days | 63 | 60 | 4/4% | 4/4% |  |  | 90 | 7.3 |  |  |  | 
CS(=O)(=O)N1CCC2(CC1)OOC1(O2)C2CC3CC(C2)CC1C3 (centres unmarked) [OZ56] | 0.59 ng/mL (≈ 1.72 nM) | 0.64 ng/mL (≈ 1.86 nM) | 93% | 99.97% | 6.7 days | 10.3 days | 66 | 69 |  |  |  |  | 63 | 5.7 |  |  |  | 
c1cn(C[C@H]2CC[C@]3(CC2)OOC2(O3)C3CC4CC(C3)CC2C4)cn1 (some centres unmarked) [OZ145] | 0.50 ng/mL (≈ 1.45 nM) | 0.76 ng/mL (≈ 2.21 nM) |  |  |  |  | 83 | 80 |  |  |  |  | 99.21 | 10.7 | 99.82 | 99.87 | 8.3 | 10.7
O=[N+]([O-])c1ccc(N2CCC3(CC2)OOC2(O3)C3CC4CC(C3)CC2C4)cc1 (centres unmarked) [OZ151] | 3.8 ng/mL (≈ 9.83 nM) | 4.0 ng/mL (≈ 10.4 nM) | 71% | 99.63% | 7.3 days | 11.0 days | 19 | 19 |  |  |  |  | 71 | 7.3 |  |  |  | 
OC12CC3CC(C1)C1(OOC4(CCC5(CC4)OCCO5)O1)C(C3)C2 (centres unmarked) [OZ152] | 3.2 ng/mL (≈ 9.46 nM) | 7.2 ng/mL (≈ 21.3 nM) |  |  | 6.3 days |  | 11 | 19 |  |  |  |  | 12 | 6.7 | 0 | 22 |  | 6.7
CN1CCN(C(=O)N2CCC3(CC2)OOC2(O3)C3CC4CC(C3)CC2C4)CC1 (centres unmarked) [OZ157] | 0.20 ng/mL (≈ 0.511 nM) | 0.22 ng/mL (≈ 0.562 nM) | 90% | 97% | 7.3 days | 8.3 days | 68 | 65 |  |  |  |  | 80 | 8.3 |  |  |  | 
C1CCN(C2CCC3(CC2)OOC2(O3)C3CC4CC(C3)CC2C4)CC1 (centres unmarked) [OZ159] | 0.70 ng/mL (≈ 2.01 nM) | 0.94 ng/mL (≈ 2.71 nM) | 34% | 98% | 6.7 days | 9.0 days | 19 | 19 |  |  |  |  | 31 | 6.7 |  |  |  | 
c1ccc(CNC2CCC3(CC2)OOC2(O3)C3CC4CC(C3)CC2C4)cc1 (centres unmarked) [OZ160] | 0.70 ng/mL (≈ 1.89 nM) | 0.87 ng/mL (≈ 2.35 nM) | 45% | 99.94% | 6.3 days | 12.0 days | 0 | 15 |  |  |  |  | 43 | 6.7 |  |  |  | 
NC[C@H]1CC[C@]2(CC1)OOC1(O2)C2CC3CC(C2)CC1C3 (some centres unmarked) [OZ163] | 0.2/0.2 ng/ml | 0.2/0.2 ng/ml |  | 100% |  |  | 80 |  |  |  |  |  | 99.94 | 9.0 | 99.90 |  | 8.0 | 9.7
C1C2CC3CC1CC(C2)C31OOC2(CCC3(CC2)OOC2(O3)C3CC4CC(C3)CC2C4)O1 (centres unmarked) [OZ169] | 15 ng/mL (≈ 33.7 nM) | > 10 ng/mL | 98% | 99.76% | 7.7 days | 9.0 days | 0 | 0 |  |  |  |  | 22 | 6.7 |  |  |  | 
NCCOc1ccc([C@H]2CC[C@]3(CC2)OO[C@]2(O3)C3CC4CC(C3)CC2C4)cc1 [OZ323] | 0.85 ng/mL (≈ 2.13 nM) | 1.1 ng/mL (≈ 2.75 nM) |  |  |  |  | 97 | 95 | 20% | 23% |  |  |  |  |  |  |  | 
O=C(C1CCCCC1)N1CC(=O)N2CCc3ccccc3C2C1 (centres unmarked) [PRAZIQUANTEL, praziquantel, reference compound] |  |  |  |  |  |  | 0 | 0 | 96/96% | 96/96% |  | 100/100% |  |  |  |  |  | 
